Measured values as given in patent US20230087439A1, “Nmr-Metabolite-Signature For Identifying Cancer Patients Resistant To Cdk4/6 Inhibitors, Endocrine Therapy and Anti-HER2 Therapy” (Olaris, inc., priority 2018, published 2023).
Several values for one entry are separate records, joined by “and”; a condition that tells them apart may be missing. Equal values may be shown once.

How the values were obtained:
[1] = tested on: adenoid cystic carcinomas of the salivary gland; details: despite increased expression of c-kit; cited from earlier work
CYP2C19 = CYP2C19 (Homo sapiens, UniProt P33261); details: off-target effect; cited from earlier work
CYP2A6 = biological target: T1, CYP2A6 (Homo sapiens, UniProt P11509); details: off-target effect; cited from earlier work
T1 sequence (P11509 1-494): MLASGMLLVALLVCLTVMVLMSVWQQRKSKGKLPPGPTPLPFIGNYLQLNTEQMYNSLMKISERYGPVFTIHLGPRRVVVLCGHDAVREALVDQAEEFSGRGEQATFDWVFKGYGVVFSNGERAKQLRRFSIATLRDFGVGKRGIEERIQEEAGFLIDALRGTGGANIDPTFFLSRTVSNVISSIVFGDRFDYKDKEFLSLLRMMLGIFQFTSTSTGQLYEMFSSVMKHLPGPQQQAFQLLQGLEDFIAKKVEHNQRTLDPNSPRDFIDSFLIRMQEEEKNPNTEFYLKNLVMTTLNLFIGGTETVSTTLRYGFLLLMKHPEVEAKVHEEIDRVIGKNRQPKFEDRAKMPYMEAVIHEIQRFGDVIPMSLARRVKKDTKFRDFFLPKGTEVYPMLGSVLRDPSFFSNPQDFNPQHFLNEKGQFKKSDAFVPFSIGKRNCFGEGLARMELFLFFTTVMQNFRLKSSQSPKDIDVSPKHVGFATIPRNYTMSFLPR

ER+/HER2− metastatic BC = test: Retrospective study: tumor response and survival of metastatic BC patients treated with CDK4/6 inhibitors; type: in vivo, human; details: palbociclib N=10, ribociclib N=14; for Non-responders (NR): at least 20% increase in sum of diameters of target tumors after 6 months; for Responders (R): at least 30% decrease in sum of diameters of target tumors after 6 months
From the text: Here we describe a retrospective study analyzing plasma-based metabolites from a baseline (BL) sample and after 2-months (2M) of treatment of 24 women with ER+/HER2− metastatic BC treated with CDK4/6 inhibitors, palbociclib or ribociclib.

Sequence of CYP2C19 (P33261 whole entry): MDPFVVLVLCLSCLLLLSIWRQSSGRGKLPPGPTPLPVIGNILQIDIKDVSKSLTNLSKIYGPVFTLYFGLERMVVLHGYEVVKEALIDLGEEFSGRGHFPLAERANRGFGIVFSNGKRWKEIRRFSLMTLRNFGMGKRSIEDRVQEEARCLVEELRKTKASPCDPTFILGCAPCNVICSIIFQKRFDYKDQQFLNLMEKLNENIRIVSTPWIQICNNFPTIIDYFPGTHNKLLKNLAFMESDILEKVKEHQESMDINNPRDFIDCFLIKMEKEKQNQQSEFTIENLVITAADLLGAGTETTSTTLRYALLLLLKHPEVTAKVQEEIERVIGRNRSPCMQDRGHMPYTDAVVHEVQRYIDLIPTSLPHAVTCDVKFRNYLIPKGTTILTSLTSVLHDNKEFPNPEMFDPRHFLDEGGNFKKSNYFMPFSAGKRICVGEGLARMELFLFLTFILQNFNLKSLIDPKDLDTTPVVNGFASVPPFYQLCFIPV

In the case of `Cc1ccc(NC(=O)c2ccc(CN3CCN(C)CC3)cc2)cc1Nc1nccc(-c2cccnc2)n1` [imatinib], the “effect on adenoid cystic carcinomas of the salivary gland” value [1] is listed as “no effect”.
For `N#Cc1ccc(C(c2ccc(C#N)cc2)n2cncn2)cc1` [letrozole], the “inhibition of CYP2C19” value (CYP2C19) is listed as “inhibits” and the “inhibition of CYP2A6” value (CYP2A6) is listed as “inhibits”.
With `CC(=O)c1c(C)c2cnc(Nc3ccc(N4CCNCC4)cn3)nc2n(C2CCCC2)c1=O` [palbociclib] the “Non-responders (NR)” value (ER+/HER2− metastatic BC) was 3 patients and the “Responders (R)” value (ER+/HER2− metastatic BC) was 7.
With `CN(C)C(=O)c1cc2cnc(Nc3ccc(N4CCNCC4)cn3)nc2n1C1CCCC1` [ribociclib] the “Non-responders (NR)” value (ER+/HER2− metastatic BC) was 7 patients and 6 patients and the “Responders (R)” value (ER+/HER2− metastatic BC) was 8.
